“And” between values parts separate entries of the source, which are not always exact repeats. Equal values may be shown once. Inconclusive results and toxic doses are left out. The calls were made as follows: active = survival T/C of 150% or more; inactive = T/C below 125% in these data.
Tested on: P388 leukemia ip, CD2F1 mice, survival T/C
Experiment: NCI In Vivo Anticancer Drug Screen. Data for tumor model P388 Leukemia (intraperitoneal) in CD2F1 (CDF1) mice
Details: endpoint: median survival time, higher = longer survival
Outline: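 Mice carrying the transplanted tumor received test compound or vehicle. Survival was recorded in each group, and the value is the treated-group measurement divided by that of the vehicle-treated control group.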

[1] = dose: 100.0 mg/kg/injection, schedule: Q04DX003 (ip), vehicle: Klucel (hydroxypropylcellulose) (HPC)
[2] = dose: 25.0 mg/kg/injection, schedule: Q01DX005 (ip), vehicle: Klucel (hydroxypropylcellulose) (HPC)
[3] = dose: 50.0 mg/kg/injection, schedule: Q01DX005 (ip), vehicle: Klucel (hydroxypropylcellulose) (HPC)
[4] = dose: 100.0 mg/kg/injection, schedule: Q01DX005 (ip), vehicle: Klucel (hydroxypropylcellulose) (HPC)
[5] = dose: 200.0 mg/kg/injection, schedule: Q01DX005 (ip), vehicle: Klucel (hydroxypropylcellulose) (HPC)
[6] = dose: 50.0 mg/kg/injection, schedule: Q01DX005 (ip), vehicle: saline with Tween-80
[7] = dose: 100.0 mg/kg/injection, schedule: Q01DX005 (ip), vehicle: saline with Tween-80
[8] = dose: 200.0 mg/kg/injection, schedule: Q01DX005 (ip), vehicle: saline with Tween-80
[9] = dose: 50.0 mg/kg/injection, schedule: Q01DX009 (ip), vehicle: Klucel (hydroxypropylcellulose) (HPC)

Measured: T/C

O=C1C=C(C/C=C/c2ccccc2)C(C/C=C/c2ccccc2)C=C1O (centres undefined)
inactive: dose: 0.32 mg/kg/injection, schedule: Q01DX009 (ip), vehicle: saline with Tween-80 102 % of control | dose: 0.63 mg/kg/injection, schedule: Q01DX009 (ip), vehicle: saline with Tween-80 107 % of control | dose: 1.25 mg/kg/injection, schedule: Q01DX009 (ip), vehicle: saline with Tween-80 103 % of control | dose: 2.5 mg/kg/injection, schedule: Q01DX009 (ip), vehicle: saline with Tween-80 102 % of control and 93 % of control | dose: 10.0 mg/kg/injection, schedule: Q01DX009 (ip), vehicle: saline with Tween-80 94 % of control

O=C(O)C(CS)NCCNC(CS)C(=O)O (centres undefined)
inactive: dose: 12.5 mg/kg/injection, schedule: Q01DX001 (ip), vehicle: Klucel (hydroxypropylcellulose) (HPC) 97 % of control | dose: 25.0 mg/kg/injection, schedule: Q01DX001 (ip), vehicle: Klucel (hydroxypropylcellulose) (HPC) 97 % of control

CCN1CC2(C)CCC(O)C34C2C(OC)C(O)(C13)C1(O)CC(OC)C2CC4(O)C1C2OC(=O)c1ccccc1 (centres undefined)
inactive: dose: 1.0 mg/kg/injection, schedule: Q01DX005 (ip), vehicle: saline + alcohol 102 % of control | dose: 2.0 mg/kg/injection, schedule: Q01DX005 (ip), vehicle: saline + alcohol 106 % of control | dose: 4.0 mg/kg/injection, schedule: Q01DX005 (ip), vehicle: saline + alcohol 108 % of control | dose: 8.0 mg/kg/injection, schedule: Q01DX005 (ip), vehicle: saline + alcohol 100 % of control

[N-]=[N+]=NC(c1ccccc1)n1nnnc1-c1ccccc1 (centres undefined)
inactive: dose: 100.0 mg/kg/injection, schedule: Q01DX001 (ip), vehicle: Klucel (hydroxypropylcellulose) (HPC) 101 % of control and 88 % of control | dose: 200.0 mg/kg/injection, schedule: Q01DX001 (ip), vehicle: Klucel (hydroxypropylcellulose) (HPC) 102 % of control and 95 % of control | dose: 400.0 mg/kg/injection, schedule: Q01DX001 (ip), vehicle: Klucel (hydroxypropylcellulose) (HPC) 98 % of control and 120 % of control

COc1ccc(N=Nc2nc(N)c(C(N)=O)[nH]2)cc1
inactive: [1] 100 % of control | dose: 200.0 mg/kg/injection, schedule: Q04DX003 (ip), vehicle: Klucel (hydroxypropylcellulose) (HPC) 103 % of control | dose: 400.0 mg/kg/injection, schedule: Q04DX003 (ip), vehicle: Klucel (hydroxypropylcellulose) (HPC) 106 % of control

CC/C=C/C(O)C(O)C1=C(C)C(=O)C2(O1)C(=O)NC(OC)(C(=O)c1ccccc1)C2O (centres undefined)
inactive: dose: 12.5 mg/kg/injection, schedule: Q01DX005 (ip), vehicle: Klucel (hydroxypropylcellulose) (HPC) 99 % of control | [2] 99 % of control | [3] 94 % of control | [4] 96 % of control | dose: 150.0 mg/kg/injection, schedule: Q01DX005 (ip), vehicle: Klucel (hydroxypropylcellulose) (HPC) 103 % of control | [5] 106 % of control

COC(=O)c1cc2cnc1CSCc1cnc(c(C(=O)OC)c1)CSC2
inactive: [6] 96 % of control | [7] 96 % of control | [8] 96 % of control

COC1C(C)OC(O[C@@H]2C[C@@](C)(O)Cc3cc4c(c(O)c32)C(=O)c2c(O)cc3c(c2C4=O)O[C@@H]2O[C@@]3(C)[C@@H](O)[C@H](N(C)C)[C@H]2O)C(OC)C1(C)OC (some centres undefined)
inactive: dose: 3.12 mg/kg/injection, schedule: Q01DX009 (ip), vehicle: other 119 % of control

Fc1ccc(N2CSC(=S)N(c3ccc(F)cc3F)C2)c(F)c1
inactive: [6] 107 % of control | [7] 104 % of control | [8] 95 % of control

CC1(C)CC(N2CCOCC2)=CC(=S)N1
inactive: [3] 100 % of control | [4] 103 % of control | [5] 98 % of control

Cc1ccc(/C=N/O)cc1
inactive: [2] 97 % of control | [3] 98 % of control | [4] 99 % of control | [5] 98 % of control

C=CCOC(=O)CCl
inactive: dose: 25.0 mg/kg/injection, schedule: Q04DX003 (ip), vehicle: Klucel (hydroxypropylcellulose) (HPC) 99 % of control | dose: 50.0 mg/kg/injection, schedule: Q04DX003 (ip), vehicle: Klucel (hydroxypropylcellulose) (HPC) 98 % of control | [1] 93 % of control and 96 % of control

CCOC(=O)c1cc(Cl)cc2c(=O)c3c([nH]c12)C(=O)c1c([nH]c2c(C(=O)OCC)cc(Cl)cc2c1=O)C3=O
inactive: [9] 99 % of control | dose: 100.0 mg/kg/injection, schedule: Q01DX009 (ip), vehicle: Klucel (hydroxypropylcellulose) (HPC) 105 % of control | dose: 200.0 mg/kg/injection, schedule: Q01DX009 (ip), vehicle: Klucel (hydroxypropylcellulose) (HPC) 98 % of control

CCOc1ccc(C(=O)Nc2c(C)cc(C)cc2C)cc1
inactive: dose: 100.0 mg/kg/injection, schedule: Q01DX009 (ip), vehicle: saline with Tween-80 90 % of control | dose: 200.0 mg/kg/injection, schedule: Q01DX009 (ip), vehicle: saline with Tween-80 95 % of control | dose: 400.0 mg/kg/injection, schedule: Q01DX009 (ip), vehicle: saline with Tween-80 105 % of control

CCC12C=CCN3CCC4(c5cc(C6(C(=O)OC)CCCCCc7c6[nH]c6ccccc76)c(OC)cc5N(C)C4C(O)(C(=O)OC)C1OC(C)=O)C32 (centres undefined)
inactive: dose: 12.5 mg/kg/injection, schedule: Q01DX001 (ip), vehicle: distilled water + Tween-80 106 % of control | dose: 25.0 mg/kg/injection, schedule: Q01DX001 (ip), vehicle: distilled water + Tween-80 109 % of control | dose: 50.0 mg/kg/injection, schedule: Q01DX001 (ip), vehicle: distilled water + Tween-80 106 % of control | dose: 100.0 mg/kg/injection, schedule: Q01DX001 (ip), vehicle: distilled water + Tween-80 95 % of control | dose: 200.0 mg/kg/injection, schedule: Q01DX001 (ip), vehicle: distilled water + Tween-80 95 % of control

CC(=O)OCc1ccc(/C=c2/[nH]c(=O)/c(=C\c3ccc(COC(C)=O)o3)[nH]c2=O)o1
inactive: dose: 12.5 mg/kg/injection, schedule: Q01DX009 (ip), vehicle: distilled water + Tween-80 88 % of control | dose: 25.0 mg/kg/injection, schedule: Q01DX009 (ip), vehicle: distilled water + Tween-80 90 % of control | dose: 50.0 mg/kg/injection, schedule: Q01DX009 (ip), vehicle: distilled water + Tween-80 96 % of control | dose: 100.0 mg/kg/injection, schedule: Q01DX009 (ip), vehicle: distilled water + Tween-80 114 % of control | dose: 200.0 mg/kg/injection, schedule: Q01DX009 (ip), vehicle: distilled water + Tween-80 99 % of control

CC12CCC(c3sc(N)c(C#N)c31)C2(C)C (centres undefined)
inactive: dose: 12.5 mg/kg/injection, schedule: Q01DX009 (ip), vehicle: Klucel (hydroxypropylcellulose) (HPC) 114 % of control | dose: 25.0 mg/kg/injection, schedule: Q01DX009 (ip), vehicle: Klucel (hydroxypropylcellulose) (HPC) 104 % of control | [9] 104 % of control

COc1cc(C2CC(C)(O)Oc3cc4c(cc32)OCO4)cc(OC)c1O (centres undefined)
inactive: dose: 60.0 mg/kg/injection, schedule: Q01DX005 (ip), vehicle: saline with Tween-80 95 % of control | dose: 120.0 mg/kg/injection, schedule: Q01DX005 (ip), vehicle: saline with Tween-80 98 % of control | dose: 240.0 mg/kg/injection, schedule: Q01DX005 (ip), vehicle: saline with Tween-80 95 % of control

CCCCOC(=O)/C=C(\I)C(=O)OCCCC
inactive: dose: 6.25 mg/kg/injection, schedule: Q01DX009 (ip), vehicle: saline with Tween-80 101 % of control and 110 % of control and 92 % of control | dose: 12.5 mg/kg/injection, schedule: Q01DX009 (ip), vehicle: saline with Tween-80 112 % of control and 114 % of control and 96 % of control | dose: 25.0 mg/kg/injection, schedule: Q01DX009 (ip), vehicle: saline with Tween-80 113 % of control and 120 % of control and 124 % of control | dose: 50.0 mg/kg/injection, schedule: Q01DX009 (ip), vehicle: saline with Tween-80 110 % of control and 111 % of control and 118 % of control

CC(=Nc1ccc(S(=O)(=O)c2ccc(N=C(C)N3CCCCC3)cc2)cc1)N1CCCCC1
inactive: [6] 100 % of control | [7] 97 % of control | [8] 88 % of control

O=S1CCS(=O)C1c1ccccc1 (centres undefined)
inactive: dose: 50.0 mg/kg/injection, schedule: Q01DX005 (ip), vehicle: other 99 % of control | dose: 100.0 mg/kg/injection, schedule: Q01DX005 (ip), vehicle: other 103 % of control

Cc1nc(Nc2ccccc2C)c2ccsc2n1
inactive: [3] 91 % of control | [4] 87 % of control

Fc1ccc(N/N=c2\nnc3ccc(F)cc3s2)cc1
inactive: dose: 100.0 mg/kg/injection, schedule: Q04DX002 (ip), vehicle: saline with Tween-80 102 % of control | dose: 200.0 mg/kg/injection, schedule: Q04DX002 (ip), vehicle: saline with Tween-80 95 % of control | dose: 400.0 mg/kg/injection, schedule: Q04DX002 (ip), vehicle: saline with Tween-80 94 % of control

Cc1cc(-c2cc(C)nc(N)n2)nc(N)n1
inactive: dose: 60.0 mg/kg/injection, schedule: Q01DX005 (ip), vehicle: saline 100 % of control | dose: 120.0 mg/kg/injection, schedule: Q01DX005 (ip), vehicle: saline 100 % of control | dose: 240.0 mg/kg/injection, schedule: Q01DX005 (ip), vehicle: saline 108 % of control

Source: PubChem BioAssay AID330 (DTP/NCI, 2004)
